PubChem BioAssay AID248 (DTP/NCI, 2004)
Toxic doses and inconclusive results are not listed. No stated cut-off is given here; in the data, active means T/C of 150% or more; inactive means T/C below 125%.

Tested on: L1210 leukemia ip in BDF1 mice, survival T/C
Experiment: NCI In Vivo Anticancer Drug Screen. Data for tumor model L1210 Leukemia (intraperitoneal) in B6D2F1 (BDF1) mice
Details: endpoint: mean survival time, schedule: Q04DX002 (ip), vehicle: saline with Tween-80, higher = longer survival
Summary of the method: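 Mice bearing the transplanted tumor received compound or vehicle. Survival of the treated group was divided by that of the vehicle-treated control group to give the ratio.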

Measured: T/C

Nn1c(Cc2ccccc2)nnc1Cc1ccccc1
inactive: dose: 100.0 mg/kg/injection 104 % of control | dose: 200.0 mg/kg/injection 87 % of control | dose: 400.0 mg/kg/injection 108 % of control
